According to the NIST ThermoML archive (doi:10.1016/j.jct.2018.01.015):
± gives the expanded uncertainty stated by the source.

Details: Gas, rotating-body viscometer for gases

N#N [nitrogen]
Details	viscosity [mPa·s]
253.21 K, 100.8 kPa	0.01561 ± 3e-05
253.21 K, 200.9 kPa	0.01564 ± 3e-05
253.21 K, 400.7 kPa	0.01566 ± 3e-05
253.21 K, 600.8 kPa	0.01571 ± 3e-05
253.21 K, 800.8 kPa	0.01574 ± 3e-05
253.21 K, 1000.9 kPa	0.01579 ± 3e-05
253.21 K, 1200.9 kPa	0.01584 ± 3e-05
273.24 K, 100.7 kPa	0.01659 ± 3e-05
273.24 K, 200.8 kPa	0.01661 ± 3e-05
273.24 K, 400.5 kPa	0.01664 ± 3e-05
273.24 K, 600.4 kPa	0.01667 ± 3e-05
273.24 K, 800.6 kPa	0.01671 ± 3e-05
273.24 K, 1000.6 kPa	0.01674 ± 3e-05
273.24 K, 1499.8 kPa	0.01685 ± 3e-05
298.24 K, 800.5 kPa	0.01785 ± 2.5e-05
298.25 K, 99.6 kPa	0.01776 ± 2.5e-05
298.25 K, 100.7 kPa	0.01777 ± 2.5e-05
298.25 K, 200.5 kPa	0.01778 ± 2.5e-05
298.25 K, 400.7 kPa	0.0178 ± 2.5e-05
298.25 K, 400.8 kPa	0.0178 ± 2.5e-05
298.25 K, 600.2 kPa	0.01783 ± 2.5e-05
298.25 K, 1000.1 kPa	0.01789 ± 2.5e-05
298.25 K, 1500.2 kPa	0.01799 ± 2.5e-05
323.26 K, 100.6 kPa	0.0189 ± 3.1e-05
323.26 K, 101.5 kPa	0.0189 ± 3.1e-05
323.26 K, 200.7 kPa	0.0189 ± 3.1e-05
323.26 K, 400.4 kPa	0.01893 ± 3.1e-05
323.26 K, 600.8 kPa	0.01896 ± 3.1e-05
323.26 K, 800.2 kPa	0.01896 ± 3.1e-05
323.26 K, 1000.6 kPa	0.01901 ± 3.1e-05
323.26 K, 1000.9 kPa	0.01901 ± 3.1e-05
323.27 K, 398.8 kPa	0.01893 ± 3.1e-05
323.27 K, 1501.9 kPa	0.01907 ± 3.1e-05
323.27 K, 1802.1 kPa	0.01913 ± 3.1e-05
373.29 K, 100.8 kPa	0.02102 ± 3.1e-05
373.29 K, 201.1 kPa	0.02104 ± 3.1e-05
373.29 K, 401 kPa	0.02106 ± 3.1e-05
373.29 K, 601 kPa	0.02107 ± 3.1e-05
373.29 K, 1000.3 kPa	0.02111 ± 3.1e-05
373.29 K, 1500.6 kPa	0.02118 ± 3.1e-05
373.29 K, 1807.2 kPa	0.02122 ± 3.1e-05
423.33 K, 100.9 kPa	0.02302 ± 3.4e-05
423.33 K, 200.9 kPa	0.02303 ± 3.4e-05
423.33 K, 400.7 kPa	0.02306 ± 3.4e-05
423.33 K, 600.6 kPa	0.02308 ± 3.4e-05
423.33 K, 1000.5 kPa	0.02311 ± 3.4e-05
423.33 K, 1500.2 kPa	0.02316 ± 3.4e-05
423.33 K, 1799.4 kPa	0.02319 ± 3.4e-05
473.38 K, 100.7 kPa	0.02494 ± 3.6e-05
473.38 K, 200.8 kPa	0.02495 ± 3.6e-05
473.38 K, 398.5 kPa	0.02496 ± 3.6e-05
473.38 K, 600.9 kPa	0.02497 ± 3.6e-05
473.38 K, 1000.7 kPa	0.02499 ± 3.6e-05
473.38 K, 1500.6 kPa	0.02503 ± 3.6e-05
473.38 K, 1799.3 kPa	0.02505 ± 3.6e-05
